# From ChEMBL document CHEMBL1201862, “PubChem BioAssay data set” (2004)
#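 Method: 48-hour compound exposure of cells in 96-well plates, five concentrations, linear interpolation of endpoints. Here, GI50 denotes the concentration required for 50% inhibition of growth.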 Activity calls are given as the source filed them. Cut-off read from the data, not from the text of the source: active = GI50 up to about 1.1 µM and inactive = higher.
# How the values were obtained:
# Test in all cases: NCI tumour cell line growth inhibition, 48 h
# A549 = system: A549
# NCI-H23 = system: NCI-H23
# HOP-92 = system: HOP-92
# M14 = system: M14
# MOLT-4 = system: MOLT-4
# SF-295 = system: SF-295
# ACHN = system: ACHN
# NCI-H226 = system: NCI-H226
# U-251 = system: U-251
# SK-MEL-28 = system: SK-MEL-28
# T47D = system: T47D
# IGROV-1 = system: IGROV-1
# HOP-62 = system: HOP-62
# SF-539 = system: SF-539
# HL-60 = system: HL-60
# 786-0 = system: 786-0
# CCRF-CEM = system: CCRF-CEM
# CAKI-1 = system: CAKI-1
# OVCAR-8 = system: OVCAR-8
# HCC 2998 = system: HCC 2998
# Malme-3M = system: Malme-3M
# RPMI-8226 = system: RPMI-8226
# SNB-19 = system: SNB-19
# SK-MEL-2 = system: SK-MEL-2
# MDA-N = system: MDA-N
# SR = system: SR
# KM12 = system: KM12
# SN12C = system: SN12C
# OVCAR-4 = system: OVCAR-4
# NCI-H522 = system: NCI-H522
# RXF 393 = system: RXF 393
# EKVX = system: EKVX
# PC-3 = system: PC-3
# MDA-MB-231 = system: MDA-MB-231
# MCF7 = system: MCF7
# HT-29 = system: HT-29
# MDA-MB-435 = system: MDA-MB-435
# HCT-15 = system: HCT-15
# DU-145 = system: DU-145
# NCI/ADR-RES = system: NCI/ADR-RES
# LOX IMVI = system: LOX IMVI
# SK-MEL-5 = system: SK-MEL-5
# UACC-62 = system: UACC-62
# HCT-116 = system: HCT-116
# NCI-H460 = system: NCI-H460
# TK-10 = system: TK-10
# OVCAR-3 = system: OVCAR-3
# A498 = system: A498
# BT-549 = system: BT-549
# COLO 205 = system: COLO 205
# UACC-257 = system: UACC-257
# SNB-75 = system: SNB-75
# K562 = system: K562
# Hs-578T = system: Hs-578T
# SF-268 = system: SF-268
# SK-OV-3 = system: SK-OV-3
# SW-620 = system: SW-620
# OVCAR-5 = system: OVCAR-5
# UO-31 = system: UO-31
smiles,measurement,setting,value
COc1ccc2c(c1)CCC(CN1CCN(CCOC(c3ccc(F)cc3)c3ccc(F)cc3)CC1)C2O (stereo not given),GI50,A549,16.3 µM (inactive)
same,GI50,NCI-H23,14.5 µM (inactive)
same,GI50,HOP-92,12.2 µM (inactive)
same,GI50,M14,12.2 µM (inactive)
same,GI50,MOLT-4,10.5 µM (inactive)
same,GI50,SF-295,17.9 µM (inactive)
same,GI50,ACHN,5.93 µM (inactive)
same,GI50,NCI-H226,16 µM (inactive)
same,GI50,U-251,13.3 µM (inactive)
same,GI50,SK-MEL-28,14.6 µM (inactive)
same,GI50,T47D,11.2 µM (inactive)
same,GI50,IGROV-1,13.8 µM (inactive)
same,GI50,HOP-62,16.1 µM (inactive)
same,GI50,SF-539,30.3 µM (inactive)
same,GI50,HL-60,0.687 µM (active)
same,GI50,786-0,11.7 µM (inactive)
same,GI50,CCRF-CEM,14.9 µM (inactive)
same,GI50,CAKI-1,15.8 µM (inactive)
same,GI50,OVCAR-8,13.8 µM (inactive)
same,GI50,HCC 2998,3.49 µM (inactive)
same,GI50,Malme-3M,14.4 µM (inactive)
same,GI50,RPMI-8226,6.75 µM (inactive)
same,GI50,SNB-19,17.2 µM (inactive)
same,GI50,SK-MEL-2,15 µM (inactive)
same,GI50,MDA-N,15.6 µM (inactive)
same,GI50,SR,6.28 µM (inactive)
same,GI50,KM12,19.1 µM (inactive)
same,GI50,SN12C,17.3 µM (inactive)
same,GI50,OVCAR-4,14.2 µM (inactive)
same,GI50,NCI-H522,14.8 µM (inactive)
same,GI50,RXF 393,12.3 µM (inactive)
same,GI50,EKVX,11.6 µM (inactive)
same,GI50,PC-3,11.7 µM (inactive)
same,GI50,MDA-MB-231,13.6 µM (inactive)
same,GI50,MCF7,19.3 µM (inactive)
same,GI50,HT-29,5.09 µM (inactive)
same,GI50,MDA-MB-435,16 µM (inactive)
same,GI50,HCT-15,10.4 µM
same,GI50,DU-145,18.1 µM (inactive)
same,GI50,NCI/ADR-RES,12.5 µM (inactive)
same,GI50,LOX IMVI,15.3 µM (inactive)
same,GI50,SK-MEL-5,5.65 µM (inactive)
same,GI50,UACC-62,11.5 µM (inactive)
same,GI50,HCT-116,11.1 µM (inactive)
same,GI50,NCI-H460,16.4 µM (inactive)
same,GI50,TK-10,15 µM (inactive)
same,GI50,OVCAR-3,14.9 µM (inactive)
same,GI50,A498,3.93 µM (inactive)
same,GI50,BT-549,14.4 µM (inactive)
same,GI50,COLO 205,4.59 µM (inactive)
same,GI50,UACC-257,12.9 µM (inactive)
same,GI50,SNB-75,16.8 µM (inactive)
same,GI50,K562,4.51 µM (inactive)
same,GI50,Hs-578T,15.4 µM (inactive)
same,GI50,SF-268,13.9 µM (inactive)
same,GI50,SK-OV-3,15.5 µM (inactive)
same,GI50,SW-620,21.1 µM (inactive)
same,GI50,OVCAR-5,15.2 µM (inactive)
O=C(O)c1cc2c(cc1CC(Cc1ccc3c(c1)CCC3)C(=O)O)CCC2 (stereo not given),GI50,A549,> 100 µM (inactive)
same,GI50,NCI-H23,> 100 µM (inactive)
same,GI50,HOP-92,20.6 µM (inactive)
same,GI50,M14,> 100 µM (inactive)
same,GI50,MOLT-4,> 100 µM (inactive)
same,GI50,SF-295,> 100 µM (inactive)
same,GI50,ACHN,> 100 µM (inactive)
same,GI50,NCI-H226,> 100 µM (inactive)
same,GI50,U-251,> 100 µM (inactive)
same,GI50,SK-MEL-28,> 100 µM (inactive)
same,GI50,T47D,> 100 µM (inactive)
same,GI50,IGROV-1,> 100 µM (inactive)
same,GI50,HOP-62,> 100 µM (inactive)
same,GI50,SF-539,> 100 µM (inactive)
same,GI50,HL-60,> 100 µM (inactive)
same,GI50,786-0,> 100 µM (inactive)
same,GI50,CCRF-CEM,> 100 µM (inactive)
same,GI50,CAKI-1,> 100 µM (inactive)
same,GI50,OVCAR-8,> 100 µM (inactive)
same,GI50,HCC 2998,> 100 µM (inactive)
same,GI50,Malme-3M,> 100 µM (inactive)
same,GI50,RPMI-8226,> 100 µM (inactive)
same,GI50,SNB-19,> 100 µM (inactive)
same,GI50,SK-MEL-2,> 100 µM (inactive)
same,GI50,MDA-N,> 100 µM (inactive)
same,GI50,SR,> 100 µM (inactive)
same,GI50,KM12,> 100 µM (inactive)
same,GI50,SN12C,> 100 µM (inactive)
same,GI50,OVCAR-4,> 100 µM (inactive)
same,GI50,NCI-H522,> 100 µM (inactive)
same,GI50,RXF 393,> 100 µM (inactive)
same,GI50,EKVX,> 100 µM (inactive)
same,GI50,PC-3,> 100 µM (inactive)
same,GI50,MDA-MB-231,> 100 µM (inactive)
same,GI50,MCF7,> 100 µM (inactive)
same,GI50,HT-29,> 100 µM (inactive)
same,GI50,MDA-MB-435,> 100 µM (inactive)
same,GI50,HCT-15,> 100 µM
same,GI50,DU-145,> 100 µM (inactive)
same,GI50,NCI/ADR-RES,> 100 µM (inactive)
same,GI50,LOX IMVI,> 100 µM (inactive)
same,GI50,SK-MEL-5,> 100 µM (inactive)
same,GI50,HCT-116,> 100 µM (inactive)
same,GI50,NCI-H460,> 100 µM (inactive)
same,GI50,TK-10,> 100 µM (inactive)
same,GI50,OVCAR-3,> 100 µM (inactive)
same,GI50,A498,> 100 µM (inactive)
same,GI50,BT-549,> 100 µM (inactive)
same,GI50,COLO 205,> 100 µM (inactive)
same,GI50,UACC-257,> 100 µM (inactive)
same,GI50,SNB-75,98.9 µM (inactive)
same,GI50,UO-31,> 100 µM (inactive)
same,GI50,Hs-578T,> 100 µM (inactive)
same,GI50,SF-268,> 100 µM (inactive)
same,GI50,SK-OV-3,> 100 µM (inactive)
same,GI50,SW-620,> 100 µM (inactive)
same,GI50,OVCAR-5,> 100 µM (inactive)
Cc1ccc(S(=O)(=O)NC(=O)C2=C(c3ccccc3)[N-]N(C)c3nc4cccc[n+]4nc32)cc1,GI50,A549,> 100 µM (inactive)
same,GI50,NCI-H23,> 100 µM (inactive)
same,GI50,HOP-92,12.6 µM (inactive)
same,GI50,M14,> 100 µM (inactive)
same,GI50,MOLT-4,99.5 µM (inactive)
same,GI50,ACHN,> 100 µM (inactive)
same,GI50,NCI-H226,> 100 µM (inactive)
same,GI50,U-251,> 100 µM (inactive)
same,GI50,SK-MEL-28,> 100 µM (inactive)
same,GI50,T47D,55.1 µM (inactive)
same,GI50,IGROV-1,51.4 µM (inactive)
same,GI50,SF-539,> 100 µM (inactive)
same,GI50,HL-60,> 100 µM (inactive)
same,GI50,786-0,> 100 µM (inactive)
same,GI50,CCRF-CEM,> 100 µM (inactive)
same,GI50,CAKI-1,> 100 µM (inactive)
same,GI50,OVCAR-8,51.6 µM (inactive)
same,GI50,HCC 2998,> 100 µM (inactive)
same,GI50,Malme-3M,99.3 µM (inactive)
same,GI50,RPMI-8226,45.6 µM (inactive)
same,GI50,SNB-19,> 100 µM (inactive)
same,GI50,SK-MEL-2,> 100 µM (inactive)
same,GI50,MDA-N,> 100 µM (inactive)
same,GI50,SR,> 100 µM (inactive)
same,GI50,KM12,> 100 µM (inactive)
same,GI50,SN12C,> 100 µM (inactive)
same,GI50,OVCAR-4,> 100 µM (inactive)
same,GI50,NCI-H522,34.4 µM (inactive)
same,GI50,RXF 393,> 100 µM (inactive)
same,GI50,EKVX,29.1 µM (inactive)
same,GI50,PC-3,> 100 µM (inactive)
same,GI50,MDA-MB-231,50.9 µM (inactive)
same,GI50,MCF7,49.9 µM (inactive)
same,GI50,HT-29,> 100 µM (inactive)
same,GI50,MDA-MB-435,> 100 µM (inactive)
same,GI50,HCT-15,> 100 µM
same,GI50,DU-145,> 100 µM (inactive)
same,GI50,NCI/ADR-RES,> 100 µM (inactive)
same,GI50,LOX IMVI,96.4 µM (inactive)
same,GI50,SK-MEL-5,98.9 µM (inactive)
same,GI50,UACC-62,> 100 µM (inactive)
same,GI50,HCT-116,> 100 µM (inactive)
same,GI50,NCI-H460,> 100 µM (inactive)
same,GI50,TK-10,> 100 µM (inactive)
same,GI50,A498,> 100 µM (inactive)
same,GI50,BT-549,> 100 µM (inactive)
same,GI50,COLO 205,23.1 µM (inactive)
same,GI50,UACC-257,66.4 µM (inactive)
same,GI50,SNB-75,57.4 µM (inactive)
same,GI50,K562,> 100 µM (inactive)
same,GI50,UO-31,> 100 µM (inactive)
same,GI50,Hs-578T,> 100 µM (inactive)
same,GI50,SF-268,> 100 µM (inactive)
same,GI50,SW-620,49.2 µM (inactive)
same,GI50,OVCAR-5,> 100 µM (inactive)
